These results are taken from the supplement of paper PMC11208160.

The data set can be described thus: recombinant UMI read abundance after kanamycin selection (control-corrected) (log10(CPM+1)); higher = more efficient recombination; extreme values may be limits of the assay; sequences stand for … in AGTGCAGAGAAAATCGGCCAGTTTTCTCTGCCTGCAGTCCGCATGCCGTGGGACCCCTTGGGTTCTAACCTGTTGCCTAGATTTATGCAGCGGACTGCCTTTCTCCCAAAGTGATAAACCGG…AGGTTGGTTTCACT; site = the 11-nt donor. Here is the method:
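Pooled E. coli donor-specificity screen for the IS621 bridge recombinase. Each library member carries a reprogrammed 11-nt donor and a full-length LE bridge RNA expressed in cis from the natural promoter, with a paired donor-binding loop (8-nt LDG + 4-nt RDG) and a target-binding loop fixed to T5. It is co-electroporated with a T5 target plasmid; recombinase is induced with 0.07 mM IPTG and recombinants are selected on kanamycin. UMIs are counted as CPM, averaged over two biological replicates and corrected by the unselected control. Molecule = full bridge RNA written as DNA, built from the T5 scaffold: LDG = donor specificity nt 1-8, RDG = reverse complement of nt 8-11.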
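Note: IS621 bridge recombinase in Escherichia coli cells against a fixed T5 target plasmid.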

In the case of “AAAAGGCCATGGACCGGTTTTCCCGGTAATCCGTATTTGAC (site AAAAGGCCTGT)”, the “recombinant UMI read abundance (log10)” value was 1.38. Under “AAAAGGCCATGGACCGGTTTTCCCGGTAATCCGTATTTGAC (site ACAAGGCCTGT)” stands 0; under “AAAAGGCCATGGACCGGTTTTCCCGGTAATCCGTATTTGAC (site AGAAGGCCTGT)”, 0.

For “AAAAGGCCATGGACCGGTTTTCCCGGTAATCCGTATTTGAC (site ATAAGGCCTGT)”, the “recombinant UMI read abundance (log10)” value was determined as 0. Under “AAAAGTACATGGACCGGTTTTCCCGGTAATCCGTATTTGAT (site AAAAGTACTAT)” stands 1.62; under “AAAATACCATGGACCGGTTTTCCCGGTAATCCGTATTTGAC (site AAAATACCTGT)”, 0.

Take “AAACAGACATGGACCGGTTTTCCCGGTAATCCGTATTTGAC (site AAACAGACTGT)”: the “recombinant UMI read abundance (log10)” value stood at 2.57. For “AAACAGTCATGGACCGGTTTTCCCGGTAATCCGTATTTGCT (site AAACAGTCTAG)”, the “recombinant UMI read abundance (log10)” value worked out at 2.98.

With “AAACATGCATGGACCGGTTTTCCCGGTAATCCGTATTTGAA (site AAACATGCTTT)”, the “recombinant UMI read abundance (log10)” value was 2.15.

As to “AAACGCACATGGACCGGTTTTCCCGGTAATCCGTATTTGTG (site AAACGCACTCA)”, the “recombinant UMI read abundance (log10)” value is 0.245.

In the case of “AAACGGACATGGACCGGTTTTCCCGGTAATCCGTATTTGTA (site AAACGGACTTA)”, the “recombinant UMI read abundance (log10)” value was 1.84. Under “AAACTAACATGGACCGGTTTTCCCGGTAATCCGTATTTGCA (site AAACTAACTTG)” stands 2.27; under “AAACTAACATGGACCGGTTTTCCCGGTAATCCGTATTTGCG (site AAACTAACTCG)”, 2.09; under “AAAGAATCATGGACCGGTTTTCCCGGTAATCCGTATTTGCA (site AAAGAATCTTG)”, 2.66. Under “AAAGAATCATGGACCGGTTTTCCCGGTAATCCGTATTTGCA (site ACAGTATCTTG)” stands 0.902; under “AAAGATACATGGACCGGTTTTCCCGGTAATCCGTATTTGTT (site AAAGATACTAA)”, 2.21; under “AAAGATTCATGGACCGGTTTTCCCGGTAATCCGTATTTGTT (site AAAGATTCTAA)”, 2.82. Next, “AAAGATTCATGGACCGGTTTTCCCGGTAATCCGTATTTGTT (site CAAGATTCTAA)”: 2.12; “AAAGATTCATGGACCGGTTTTCCCGGTAATCCGTATTTGTT (site GAAGATTCTAA)”: 0.233.

As for “AAAGATTCATGGACCGGTTTTCCCGGTAATCCGTATTTGTT (site TAAGATTCTAA)”, the “recombinant UMI read abundance (log10)” value turned out to be 2.48.

In the case of “AAAGTATCATGGACCGGTTTTCCCGGTAATCCGTATTTGGA (site AAAGTATCTTC)”, the “recombinant UMI read abundance (log10)” value was 2.45. Under “AAAGTATCATGGACCGGTTTTCCCGGTAATCCGTATTTGGA (site ACAGTATCTTG)” stands 0. Under “AAATAGGCATGGACCGGTTTTCCCGGTAATCCGTATTTGCC (site AAATAGGCTGG)” stands 1.07. Next, “AAATATACATGGACCGGTTTTCCCGGTAATCCGTATTTGAC (site AAATATACTGT)”: 2.52. As for “AACAACCCATGGACCGGTTTTCCCGGTAATCCGTATTTGAA (site AACAACCCTTT)”, the “recombinant UMI read abundance (log10)” value was determined as 0.192. Under “AACAAGTCATGGACCGGTTTTCCCGGTAATCCGTATTTGAC (site AACAAGTCTGT)” stands 1.86; under “AACAATACATGGACCGGTTTTCCCGGTAATCCGTATTTGTC (site AACAATACTGA)”, 1.64; under “AACAGTGCATGGACCGGTTTTCCCGGTAATCCGTATTTGTC (site AACAGTGCTGA)”, 2.39. Under “AACCATCCATGGACCGGTTTTCCCGGTAATCCGTATTTGAT (site AACCATCCTAT)” stands 0.499. Under “AACCATCCATGGACCGGTTTTCCCGGTAATCCGTATTTGAT (site AACCCTCCTAT)” stands 0.0146; under “AACCATCCATGGACCGGTTTTCCCGGTAATCCGTATTTGAT (site AACCGTCCTAT)”, 0.00892. In the case of “AACCATCCATGGACCGGTTTTCCCGGTAATCCGTATTTGAT (site AACCTTCCTAT)”, the “recombinant UMI read abundance (log10)” value is 0.431. “AACCCCGCATGGACCGGTTTTCCCGGTAATCCGTATTTGAC (site AACCCCGCTGT)”: the “recombinant UMI read abundance (log10)” value was determined as 2.32.

Turning to “AACCGAGCATGGACCGGTTTTCCCGGTAATCCGTATTTGTT (site AACCGAGCTAA)”, the “recombinant UMI read abundance (log10)” value amounted to 0.146. Next, “AACCGTTCATGGACCGGTTTTCCCGGTAATCCGTATTTGAT (site AACCGTACTAT)”: 0.00732. Consider “AACCGTTCATGGACCGGTTTTCCCGGTAATCCGTATTTGAT (site AACCGTCCTAT)”, for which the “recombinant UMI read abundance (log10)” value came out at 0.012.

In the case of “AACCGTTCATGGACCGGTTTTCCCGGTAATCCGTATTTGAT (site AACCGTGCTAT)”, the “recombinant UMI read abundance (log10)” value turned out to be 0.0146. Regarding “AACCGTTCATGGACCGGTTTTCCCGGTAATCCGTATTTGAT (site AACCGTTCTAT)”, the “recombinant UMI read abundance (log10)” value was found to be 0.348. Under “AACCTTTCATGGACCGGTTTTCCCGGTAATCCGTATTTGAC (site AACCTTTCTGT)” stands 0; under “AACCTTTCATGGACCGGTTTTCCCGGTAATCCGTATTTGAC (site ACCCTTTCTGT)”, 0. For the sequence “AACCTTTCATGGACCGGTTTTCCCGGTAATCCGTATTTGAC (site AGCCTTTCTGT)”, the “recombinant UMI read abundance (log10)” value turned out to be 0. Under “AACCTTTCATGGACCGGTTTTCCCGGTAATCCGTATTTGAC (site ATCCTTTCTGT)” stands 0; under “AACGACCCATGGACCGGTTTTCCCGGTAATCCGTATTTGAG (site AACGACCCTCT)”, 0.029. Under “AACGATCCATGGACCGGTTTTCCCGGTAATCCGTATTTGTA (site AACGATCCTTA)” stands 1.42; under “AACGCCGCATGGACCGGTTTTCCCGGTAATCCGTATTTGAG (site AACGCCGCTCT)”, 0.916. On to “AACGGGACATGGACCGGTTTTCCCGGTAATCCGTATTTGAT (site AACGGGACTAT)”, for which the “recombinant UMI read abundance (log10)” value amounted to 2.44.

As for “AACTATTCATGGACCGGTTTTCCCGGTAATCCGTATTTGTA (site AACTATTCTTA)”, the “recombinant UMI read abundance (log10)” value worked out at 2.2. Under “AACTCAGCATGGACCGGTTTTCCCGGTAATCCGTATTTGGG (site AACTCAGCTCC)” stands 0.0924. On to “AACTCAGCATGGACCGGTTTTCCCGGTAATCCGTATTTGGG (site ACCTCAGCTCC)”, for which the “recombinant UMI read abundance (log10)” value stood at 0.0111. As to “AACTCAGCATGGACCGGTTTTCCCGGTAATCCGTATTTGGG (site AGCTCAGCTCC)”, the “recombinant UMI read abundance (log10)” value was 0.00784. Under “AACTCAGCATGGACCGGTTTTCCCGGTAATCCGTATTTGGG (site ATCTCAGCTCC)” stands 0.192; under “AACTGCGCATGGACCGGTTTTCCCGGTAATCCGTATTTGAT (site AACTGCGCTAT)”, 1.34.
